Laboratory results from patent US20100173914A1, “PHARMACEUTICALS, COMPOSITIONS AND METHODS OF MAKING AND USING THE SAME” (priority 2007, published 2010).
pKi: −log10 of the molar value.

Key:
[1] = biological target: T1, human adenosine A1 receptors (Homo sapiens, UniProt P30542); experiment: Adenosine receptor binding: binding affinities at hA1 receptors ([3H]DPCPX displacement); conditions: displacement of [3H]DPCPX, membranes of CHO-K1 cells transfected with human A1
T1 construct: expressed in transfected cells; host or cells: CHO-K1
T1 sequence (P30542 1-326): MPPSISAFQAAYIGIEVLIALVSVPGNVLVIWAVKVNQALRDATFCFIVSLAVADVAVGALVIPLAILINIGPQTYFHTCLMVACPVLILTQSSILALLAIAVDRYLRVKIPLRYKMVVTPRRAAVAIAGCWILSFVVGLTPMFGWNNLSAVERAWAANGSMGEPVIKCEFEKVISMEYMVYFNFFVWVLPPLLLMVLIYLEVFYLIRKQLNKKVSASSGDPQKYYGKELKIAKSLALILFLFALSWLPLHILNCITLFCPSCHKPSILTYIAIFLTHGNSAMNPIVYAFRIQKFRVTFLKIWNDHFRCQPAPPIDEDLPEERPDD
Description: Adenosine Receptor Binding: Binding Affinities at hA1 Receptors
The compounds were examined in an assay measuring in vitro binding to human adenosine A1 receptors by determining the displacement of the adenosine A1 receptor selective radioligand 8-Cyclopentyl-1,3-dipropylxanthine ([^3H]DPCPX) using standard techniques. See, for example, Lohse M J, et al., (1987), 8-Cyclopentyl-1,3-dipropylxanthine (DPCPX)—a selective high affinity antagonist radioligand for A1 adenosine receptors. Naunyn Schmiedebergs Arch Pharmacol., 336(2):204-10, which is incorporated by reference in its entirety.
Frozen CHO-K1 cells (transfected with a human adenosine A1 recepter expression vector) were homogenized in 130 mL of 50 mM Tris HCl buffer (pH 7.5) containing 10 mM MgCl2, and 0.1 IU/mL adenosine deaminase per pellet using a Ultra-Turrax homogeniser. The resultant homogenate was kept for immediate use in the binding. Binding assays were performed in a total volume of 250 μL, containing [^3H]-DPCPX (3.0 nM), membranes and additional drugs. Total binding was determined using drug dilution buffer (50 mM Tris-HCl pH:7.5, 10 mM MgCl2, 5% DMSO). Non-specific binding was determined using 300 μM N6-cyclohexyladenosine (CHA). Following incubation for 90 minutes at 21° C., assays were terminated by rapid filtration with GF/B filters (presoaked in 0.1% (w/v) polyethylenimine) using a Canberra Packard filtermate 196, washed 3 times with ice-cold Tris-HCl (pH 7.4). Filters were left to dry overnight, and Microscint-0 scintillation fluid was then added to the filters. The filters were then left for at least 2 hours before the radioactivity was assessed using a Canberra Packard TopCount microplate scintillation counter.
To determine the free ligand concentration, three vials were counted with 25 μL of [^3H]DPCPX containing 4 mL of Ultima-Gold MV scintillant on a Beckman LS6500 multi-purpose scintillation counter.
(§1) Data was analysed using a 4 parameter logistical equation and non-linear regression which yields affinity constants (pIC50), and slope parameters:
where E is the quantity of binding and [A] is the competitor concentration. The K, is then determined using the Cheng-Prusoff equation: […]

[2] = biological target: T2, human adenosine A2A receptors (Homo sapiens, UniProt P29274); experiment: Adenosine receptor binding: binding affinities at hA2A receptors ([3H]CGS-21680 displacement); conditions: for pKi: displacement of [3H]CGS-21680, HEK-293 cell membranes; for A2A/A1 selectivity ratio (Ki A2A/Ki A1): ratio of measured Ki values at hA2A and hA1
T2 construct: host or cells: HEK-293
Description: Adenosine Receptor Binding: Binding Affinities at hA2A Receptors
The compounds were examined in an assay measuring in vitro binding to human adenosine A2A receptors by determining the displacement of the adenosine A2A receptor selective radioligand 4-[2-[[6-Amino-9-(N-ethyl-β-D-ribofuranuronamidosyl)-9H-purin-2-yl]amino]ethyl]benzenepropanoic acid hydrochloride ([^3H]CGS-21680) using standard techniques. See, for example, Jarvis et al., J Pharmacol Exp Ther., 251(3):888-93, which is incorporated by reference in its entirety.
Frozen HEK-293 cells were homogenized in 65 mL of 50 mM Tris HCl buffer (pH 7.5) containing 10 mM MgCl2, and 0.1 IU/mL adenosine deaminase per pellet using a Ultra-Turrax homogenizer. The resultant homogenate was kept for immediate use in the binding assay.
Binding assays were performed in a total volume of 250 μL, containing [^3H]-CGS21680 (20.0 nM), membranes and additional drugs. Total binding was determined using drug dilution buffer (50 mM Tris-HCl pH 7.5, 10 mM MgCl2, 5% DMSO). Non-specific binding was determined using 300 μM CHA. Following incubation for 90 minutes at 21° C., assays were terminated by rapid filtration with GF/B filters (presoaked in 0.1% (w/v) polyethylenimine) using a Canberra Packard filtermate 196, washed 3 times with ice-cold Tris-HCl (pH 7.4). Filters were left to dry overnight, and Microscint-0 scintillation fluid was then added to the filters. The filters were then left for at least 2 hours before the radioactivity was assessed using a Canberra Packard TopCount microplate scintillation counter.
To determine the free ligand concentration, three vials were counted with 25 μL of [^3H]CGS21680 containing 4 mL of Ultima-Gold MV scintillant on a Beckman LS6500 multi-purpose scintillation counter.
as §1
where E is the quantity of binding and [A] is the competitor concentration. The Ki is then determined using the Cheng-Prusoff equation: […]

T2 sequence (P29274 whole entry): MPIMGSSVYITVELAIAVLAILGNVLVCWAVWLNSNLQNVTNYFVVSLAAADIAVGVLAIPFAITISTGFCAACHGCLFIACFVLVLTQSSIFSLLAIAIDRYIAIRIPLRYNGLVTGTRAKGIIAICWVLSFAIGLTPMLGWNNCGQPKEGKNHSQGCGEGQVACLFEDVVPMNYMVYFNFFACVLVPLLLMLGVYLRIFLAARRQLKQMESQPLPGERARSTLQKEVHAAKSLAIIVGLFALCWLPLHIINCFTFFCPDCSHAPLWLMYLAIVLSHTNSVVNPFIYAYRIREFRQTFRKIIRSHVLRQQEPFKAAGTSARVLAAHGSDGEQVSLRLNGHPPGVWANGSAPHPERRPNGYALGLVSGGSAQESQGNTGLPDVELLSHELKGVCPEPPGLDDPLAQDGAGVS

Row | pKi [1] | pKi [2] | A2A/A1 selectivity ratio (Ki A2A/Ki A1) [2] | SMILES
1 | < 5.00 | 5.00 to 6.00 | G (10 to 20) | COc1cc(Cn2nnc3c(-c4ccco4)nc(N)nc32)ccc1NS(=O)(=O)O [4-[(5-amino-7-(furan-2-yl)-3H-[1,2,3]triazolo[4,5-d]pyrimidin-3-yl)methyl]-2-methoxyphenylsulfamic acid]
2 | 6.00 to 7.00 | ≥ 7.00 | H (more than 20) | Cc1cc(Cn2nnc3c(-c4ccco4)nc(N)nc32)ccc1NS(=O)(=O)O [4-[(5-amino-7-(furan-2-yl)-3H-[1,2,3]triazolo[4,5-d]pyrimidin-3-yl)methyl]-2-methylphenylsulfamic acid]
3 | 5.00 to 6.00 | 6.00 to 7.00 | H (more than 20) | COc1cc(Cn2nnc3c(-c4cccs4)nc(N)nc32)ccc1NS(=O)(=O)O [4-[(5-amino-7-(thiophen-2-yl)-3H-[1,2,3]triazolo[4,5-d]pyrimidin-3-yl)methyl]-2-methoxyphenylsulfamic acid]
4 | 6.00 to 7.00 | ≥ 7.00 | H (more than 20) | Cc1cc(Cn2nnc3c(-c4cccs4)nc(N)nc32)ccc1NS(=O)(=O)O [4-[(5-amino-7-(thiophen-2-yl)-3H-[1,2,3]triazolo[4,5-d]pyrimidin-3-yl)methyl]-2-methylphenylsulfamic acid]
5 | < 5.00 | 5.00 to 6.00 | F (5 to 10) | COc1cc(NS(=O)(=O)O)ccc1Cn1nnc2c(-c3cccs3)nc(N)nc21 [4-[(5-amino-7-(thiophen-2-yl)-3H-[1,2,3]triazolo[4,5-d]pyrimidin-3-yl)methyl]-3-methoxyphenylsulfamic acid]
6 | 5.00 to 6.00 | 6.00 to 7.00 | G (10 to 20) | Nc1nc(-c2cccs2)c2nnn(Cc3ccc(NS(=O)(=O)O)cc3)c2n1 [4-[(5-amino-7-(thiophen-2-yl)-3H-[1,2,3]triazolo[4,5-d]pyrimidin-3-yl)methyl]phenylsulfamic acid]
7 | 5.00 to 6.00 | 6.00 to 7.00 | G (10 to 20) | COc1cc(Cn2nnc3c(-c4ccccc4)nc(N)nc32)ccc1NS(=O)(=O)O [4-[(5-amino-7-phenyl-3H-[1,2,3]triazolo[4,5-d]pyrimidin-3-yl)methyl]-2-methoxyphenylsulfamic acid]

The remaining lines, values behind:

Row | SMILES | pKi [1] | pKi [2] | A2A/A1 selectivity ratio (Ki A2A/Ki A1) [2]
8 | Cc1ccc(-c2nc(N)nc3c2nnn3Cc2ccc(NS(=O)(=O)O)cc2)o1 [4-[(5-amino-7-(5-methylfuran-2-yl)-3H-[1,2,3]triazolo[4,5-d]pyrimidin-3-yl)methyl]phenylsulfamic acid] | 5.00 to 6.00 | ≥ 7.00 | H (more than 20)
9 | COc1cc(NS(=O)(=O)O)ccc1Cn1nnc2c(-c3ccco3)nc(N)nc21 [4-[(5-amino-7-(furan-2-yl)-3H-[1,2,3]triazolo[4,5-d]pyrimidin-3-yl)methyl]-3-methoxyphenylsulfamic acid] | < 5.00 | 6.00 to 7.00 | G (10 to 20)
10 | Nc1nc(-c2ccco2)c2nnn(Cc3ccc(NS(=O)(=O)O)cc3)c2n1 [4-[(5-amino-7-(furan-2-yl)-3H-[1,2,3]triazolo[4,5-d]pyrimidin-3-yl)methyl]phenylsulfamic acid] | 5.00 to 6.00 | ≥ 7.00 | H (more than 20)
11 | Nc1nc(-c2ccccc2)c2nnn(Cc3ccc(NS(=O)(=O)O)cc3)c2n1 [4-[(5-amino-7-(phenyl,2,3]triazolo[4,5-d]pyrimidin-3-yl)methyl]phenylsulfamic acid] | 5.00 to 6.00 | 6.00 to 7.00 | G (10 to 20)
12 | Cc1cc(Cn2nnc3c(-c4ccccc4)nc(N)nc32)ccc1NS(=O)(=O)O [4-[(5-amino-7-phenyl-3H-[1,2,3]triazolo[4,5-d]pyrimidin-3-yl)methyl]-2-methylphenylsulfamic acid] | 6.00 to 7.00 | ≥ 7.00 | H (more than 20)
